In US11478552B2, “Hybrid carriers for nucleic acid cargo” (CureVac AG, priority 2016, dated 2022):

How the values were obtained:
HepG2 cells = experiment: Transfection of HepG2 cells with GpLuc mRNA, luminescence of supernatant (Example 3); format: cell-based; conditions: small amounts of lipidoid added to PB83, GpLuc mRNA, 24 h post transfection
Protocol: For luminescence analysis, a volume of 10 μL supernatant was transferred to a 96 well plate for GpLuc measurement. Then, coelenterazine working solution (100 μM) was prepared (1 mL coelenterazine stock solution (4.72 mM in EtOH) in 49 mL phosphate buffered saline supplemented with 5 mM NaCl, pH 7.2). A volume of 100 μL coelenterazine working solution was used as a substrate for GpLuc and measured after 5 seconds in a commercially available microplate reader.
The experiments were conducted as described in the previous Example, except that HepG2 cells were transfected instead of Sol8 cells. A volume of 0.2 mL HepG2 cells (10.000 cells) were seeded in a 96 well tissue culture plate. After removing the medium from each well, 100 μL RPMI 1640 medium (with 1% Penicillin and 1% Streptomycin, 1% L-Glutamin) was added to each well. Afterwards, HepG2 cells were transfected with 100 μL transfection mix (in triplicates) of polymer-lipidoid mRNA complexes and respective controls (in triplicates), and cells were incubated at 37° C. and 5% CO2 for 90 minutes. After incubation, 150 μL medium was exchanged with 150 μL fresh RPMI 1640 medium supplemented with 10% fetal calf serum. Twenty-four hours post transfection, 10 μL of supernatant of each well was extracted and used for further luminescence analysis.

[1] = tested on: differentiated Sol8 cells; experiment: Transfection of Sol8 muscle cells with GpLuc mRNA, luminescence of supernatant (Example 2); format: cell-based, C3H mouse; conditions: small amounts of lipidoid added to PB83, GpLuc mRNA (SEQ ID NO: 12), 24 h post transfection
Protocol: Sol8 is a myogenic cell line isolated by Daubas et al. from primary cultures of soleus muscle taken from the leg of a normal C3H mouse. A volume of 0.2 mL Sol8 cells (20.000 cells) were seeded in 96 well glass bottom plates (Softwell Hydrogel coated with collagen, elasticity E=12 kPa) on day 1. After removing the medium from each well, 100 μL DMEM medium (with 2% horse serum) was added to each well. Afterwards, on day 2, Sol8 cells were transfected with 100 μL transfection mix (in triplicates) of polymer-lipidoid complexes prepared according to Example 1) and respective controls (in triplicates), and cells were incubated at 37° C. and 5% CO2 for 120 minutes. After incubation, 150 μL medium was exchanged with 150 μL fresh DMEM medium supplemented with 10% fetal calf serum. Twenty-four hours post transfection, i.e. on day 3, 10 μL of supernatant of each well was extracted and used for further luminescence analysis, which was performed as described below. […]
For luminescence analysis, a volume of 10 μL supernatant was transferred to a 96 well plate for GpLuc measurement. […] A volume of 100 μL coelenterazine working solution was used as a substrate for GpLuc and measured after 5 seconds in a commercially available microplate reader.

Structure (SMILES): CCCCCCCCCCC(O)C[N+](C)(C)CCN(CC[N+](C)(C)CC(O)CCCCCCCCCC)CC[N+](C)(C)CC(O)CCCCCCCCCC (centres unmarked) [3-C12-OH-cat]
- transfection efficiency (GpLuc luminescence) (HepG2 cells): profound increase of transfection efficiency

Structure (SMILES): CCCCCCCCCCC(O)CNCCN(CCNCC(O)CCCCCCCCCC)CCNCC(O)CCCCCCCCCC (centres unmarked) [3-C12-OH]
- transfection efficiency (GpLuc luminescence) [1]: profound increase of transfection efficiency
- transfection efficiency (GpLuc luminescence) (HepG2 cells): profound increase of transfection efficiency

Structure (SMILES): CCCCCCCCCCCCNCCN(CCNCCCCCCCCCCCC)CCNCCCCCCCCCCCC [3-C12]
- transfection efficiency (GpLuc luminescence) [1]: profound increase of transfection efficiency
- transfection efficiency (GpLuc luminescence) (HepG2 cells): profound increase of transfection efficiency
